pIC50: −log10 of the molar value. Counter-ions that a name gives are not always drawn. Like-named read-outs stand apart in the source and are kept apart here.

The results in this text go back to patent publication US7648983B2, “BACE inhibitors” (Eli Lilly and Company, priority 2008, dated 2010).

The target in test [1] is T1, beta-secretase (Mus musculus, UniProt P56818).
T1 construct: from tissue; host or cells: living PDAPP mice; brain cortex, plasma and CSF analysed
The test can be described thus: In vivo inhibition of beta-secretase in PDAPP mice. The conditions noted are these: 3 hours. An excerpt:
Several animal models, including mouse, guinea pig, dog, and monkey, may be used to screen for inhibition of beta-secretase activity in vivo following compound treatment. Animals used in this invention can be wild type, transgenic, or gene knockout animals. For example, the PDAPP mouse model, prepared as described in Games et al., Nature 373, 523-527 (1995), and other non-transgenic or gene knockout animals are useful to analyze in vivo inhibition of Abeta and sAPPbeta production in the presence of inhibitory compounds. Generally, 2 to 12 month old PDAPP mice, gene knockout mice or non-transgenic animals are administered compound formulated in vehicles, such as corn oil, cyclodextran, phosphate buffers, PHARMASOLVE®, or other suitable vehicles. One to twenty-four hours following the administration of compound, animals are sacrificed, and brains as well as cerebrospinal fluid and plasma are removed for analysis of Abetas, C99 and sAPP fragments. (See Dovey, et al., Journal of Neurochemistry, 76, 173-181 (2001); and Johnson-Wood, et al., Proc. Natl. Acad. Sci. USA, 94, 1550-1555 (1997)).
For standard efficacy studies, animals are dosed with various concentrations of compound and compared to a vehicle-treated control group dosed at the same time. For some time course studies, brain tissue, plasma or cerebrospinal fluid is obtained from selected animals, beginning at time 0 to establish a baseline. Compound is administered to other groups and sacrificed at various times after dosing. Brain tissue, plasma or cerebrospinal fluid is obtained from selected animals and analyzed for the presence of APP cleavage products, including Abeta peptides, sAPPbeta and other APP fragments, for example, by specific sandwich ELISA assays. At the end of the test period, animals are sacrificed and brain tissues, plasma or cerebrospinal fluid are analyzed for the presence of Abeta peptides, C99 and sAPPbeta. Brain tissues of APP transgenic animals are also analyzed for the amount of beta-amyloid plaques following compound treatment.
For example, 3 hours after administration of 100 mg/kg sub-cutaneous dose of the compound of example 19 to young male PDAPP mice, Abeta 1-x peptide, C99 and sAPPb levels are reduced approximately 30%, 50% and 20% in brain cortex, respectively, compared to vehicle-treated mice.

Test [2] addresses T2, human BACE(1-460):Fc (Homo sapiens, UniProt P56817).
T2 construct: made in house; host or cells: HEK293 cells (transient, pJB02 vector), purified from conditioned media by Protein A
The experiment in a line: BACE FRET assay. The test is classed as biochemical. As to the method: (§1) For in vitro enzymatic and cellular assays, test compounds are prepared in DMSO to make up a 10 mM stock solution. The stock solution is serially diluted in DMSO to obtain a ten-point dilution curve with final compound concentrations ranging from […] to 1 pM in a 96-well round-bottom plate before conducting the in vitro enzymatic and whole cell assays.
Serial dilutions of test compounds are prepared as described above. Compounds are further diluted 20× in KH2PO4 buffer. Ten μL of each dilution is added to each well on row A to H of a corresponding low protein binding black plate containing the reaction mixture (25 μL of 50 mM KH2PO4, pH 4.6, 1 mM TRITON® X-100, 1 mg/mL Bovine Serum Albumin, and 15 μM of FRET substrate) (See Yang, et. al., J. Neurochemistry, 91(6) 1249-59 (2004)). The content is mixed well on a plate shaker for 10 minutes. Fifteen μL of two hundred pM human BACE(1-460):Fc (See Vasser, et al., Science, 286, 735-741 (1999)) in the KH2PO4 buffer is added to the plate containing substrate and test compounds to initiate the reaction. The RFU of the mixture at time 0 is recorded at excitation wavelength 355 nm and emission wavelength 460 nm, after brief mixing on a plate shaker. The reaction plate is covered with aluminum foil and kept in a dark humidified oven at room temperature for 16 to 24 h. The RFU at the end of incubation is recorded with the same excitation and emission setting. The difference of the RFU at time 0 and the end of incubation is representative of the activity of BACE under the compound treatment. RFU differences are plotted versus inhibitor concentration and a curve is fitted with a four-parameter logistic equation to obtain the EC50 and IC50 values. (See Sinha, et al., Nature, 402, 537-540 (2000)).
Human (accession number: AF190725) is cloned from total brain cDNA by […]. The nucleotide sequences corresponding to amino acid sequences #1 to 460 are inserted into the cDNA encoding human IgG1 (Fc) polypeptide (Vassar et al. 1999). This fusion protein of BACE(1-460) and human Fc, named huBACE:Fc, is constructed into the pJB02 vector. Human BACE(1-460):Fc (huBACE:Fc) is transiently expressed in HEK293 cells. 250 μg cDNA of each construct is mixed with Fugene 6 and added to 1 liter HEK293 cells. Four days after the transfection, conditioned media are harvested for purification.
huBACE:Fc is purified by Protein A chromatography. The enzyme is stored at −80° C. in small aliquots.

Test [3] addresses T3, beta-secretase (BACE) in primary cortical neurons from PDAPP transgenic embryonic mice (Mus musculus, UniProt P56818).
T3 construct: endogenous in cells; host or cells: primary cortical neurons from Embryonic Day 16 PDAPP transgenic mouse embryos
The experiment in a line: PDAPP primary neuronal assay (Abeta ELISA). The test is classed as cell-based. As to the method: as §1
A confirmatory whole cell assay is also run in primary neuronal cultures generated from PDAPP transgenic embryonic mice. Primary cortical neurons are prepared from Embryonic Day 16 PDAPP embryos and cultured in 96 well plates (15×10^4 cells/well in DMEM/F12 (1:1) plus 10% FBS). After 4-6 days in vitro, culture media is replaced with serum free DMEM/F12 (1:1) containing B27 supplement and neurons are incubated at 37° C. for 24 h in the presence/absence of inhibitors (diluted in DMSO) at the desired concentration. At the end of the incubation, conditioned media are analyzed for evidence of beta-secretase activity, for example, by analysis of Abeta peptides. Total Abeta peptides (Abeta 1-x) are measured by a sandwich ELISA, using monoclonal 266 as a capture antibody and biotinylated 3D6 as reporting antibody. Alternatively, Abeta 1-40 and Abeta 1-42 peptides are measured by a sandwich ELISA, using monoclonal 2G3 as a capture antibody for Abeta 1-40, and monoclonal 21F12 as a capture antibody for Abeta 1-42. Both Abeta 1-40 and Abeta 1-42 ELISAs use biotinylated 3D6 as the reporting antibody. The concentration of Abeta released in the conditioned media following the compound treatment corresponds to the activity of BACE under such conditions. The 10-point inhibition curve is plotted and fitted with the four-parameter logistic equation to obtain the EC50 and IC50 values for the Abeta-lowering effect. […]

The target of test [4] is T4, beta-secretase (BACE) in HEK293/APP751sw cells (Homo sapiens, UniProt P56817).
T4 construct: endogenous in cells; host or cells: HEK293p (ATCC CRL-1573) stably expressing human APP751 Swedish
T4 sequence (P56817 46-501): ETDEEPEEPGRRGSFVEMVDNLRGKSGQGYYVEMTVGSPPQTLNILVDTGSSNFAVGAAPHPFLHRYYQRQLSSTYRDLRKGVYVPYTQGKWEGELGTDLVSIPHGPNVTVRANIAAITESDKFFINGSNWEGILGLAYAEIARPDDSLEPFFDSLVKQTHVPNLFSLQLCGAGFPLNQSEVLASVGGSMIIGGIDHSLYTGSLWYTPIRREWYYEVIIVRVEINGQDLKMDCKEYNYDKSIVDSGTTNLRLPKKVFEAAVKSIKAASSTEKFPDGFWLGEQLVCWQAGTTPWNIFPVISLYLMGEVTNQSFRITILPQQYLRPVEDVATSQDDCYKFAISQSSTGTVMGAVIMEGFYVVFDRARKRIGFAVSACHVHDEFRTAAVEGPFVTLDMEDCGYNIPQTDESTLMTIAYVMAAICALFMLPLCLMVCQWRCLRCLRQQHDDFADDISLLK
The test can be described thus: HEK293Swe whole cell assay (Abeta ELISA). The test is classed as cell-based. As to the method:
as §1
The routine whole cell assay for the measurement of inhibition of beta-secretase activity utilizes the human embryonic kidney cell line HEK293p (ATCC Accession No. CRL-1573) stably expressing a human APP751 cDNA containing the naturally occurring double mutation Lys651Met652 to […], commonly called the Swedish mutation (noted HEK293/APP751sw) and shown to overproduce Abeta (Citron, et al., Nature, 360, 672-674 (1992)). In vitro Aβ reduction assays have been described in the literature (See Dovey, et al., Journal of Neurochemistry, 76, 173-181 (2001); Seubert, et al., Nature, 361, 260 (1993); and Johnson-Wood, et al., Proc. Natl. Acad. Sci. USA, 94, 1550-1555 (1997)).
Cells (HEK293/APP751sw at 3.5×10^4 cells/well, containing 200 μL culture media, DMEM containing 10% FBS) are incubated at 37° C. for 4 to 24 h in the presence/absence of inhibitors (diluted in DMSO) at the desired concentration. At the end of the incubation, conditioned media are analyzed for evidence of beta-secretase activity, for example, by analysis of Abeta peptides. Total Abeta peptides (Abeta 1-x) are measured by a sandwich ELISA, using monoclonal 266 as a capture antibody and biotinylated 3D6 as reporting antibody. Alternatively, Abeta 1-40 and Abeta 1-42 peptides are measured by a sandwich ELISA, using monoclonal 2G3 as a capture antibody for Abeta 1-40, and monoclonal 21F12 as a capture antibody for Abeta 1-42. Both Abeta 1-40 and Abeta 1-42 ELISAs use biotinylated 3D6 as the reporting antibody. The concentration of Abeta released in the conditioned media following the compound treatment corresponds to the activity of BACE under such conditions. The 10-point inhibition curve is plotted and fitted with the four-parameter logistic equation to obtain the EC50 and IC50 values for the Abeta-lowering effect.

Where [5] appears, read: 30 mg/kg sub-cutaneous, young male PDAPP mice, brain, vs vehicle-treated mice.
[6] abbreviates: Table 26, purified recombinant huBACE:Fc, FRET substrate, pH 4.6.
Setting [7] is: Table 28, Abeta 1-40 in conditioned media, 24 h, read-out: PDAPP Neuron A-beta (1-40) ELISA IC50.
Where [8] appears, read: Table 28, Abeta 1-42 in conditioned media, 24 h, read-out: PDAPP Neuron A-beta (1-42) ELISA IC50.
[9] abbreviates: Table 27, Abeta 1-40 in conditioned media, read-out: HEK 293 Swe A-beta (1-40) ELISA IC50.
Where [10] appears, read: Table 27, Abeta 1-42 in conditioned media, read-out: HEK 293 Swe A-beta (1-42) ELISA IC50.
Setting [11] is: 100 mg/kg sub-cutaneous, young male PDAPP mice, vs vehicle-treated mice.
The mark [12] stands for this setting: Table 29, comparator of WO 2007/049532 and enantiomers.
The mark [13] stands for this setting: Table 29, comparator of WO 2007/049532 and enantiomers, read-out: HEK 293 Swe A-beta (1-40) ELISA IC50.
[14] abbreviates: Table 29, comparator of WO 2007/049532 and enantiomers, read-out: HEK 293 Swe A-beta (1-42) ELISA IC50.
Where [15] appears, read: Table 29, comparator of WO 2007/049532 and enantiomers, read-out: PDAPP Neuron A-beta (1-40) ELISA IC50.
Where [16] appears, read: Table 29, comparator of WO 2007/049532 and enantiomers, read-out: PDAPP Neuron A-beta (1-42) ELISA IC50.

T1 sequence (P56818 46-501): as the sequence (P56817 46-501) above, with P6S, V162I, L165I, S180T, V182A, I340V, L393A, Q443H counted along it
T3 sequence (P56818 46-501): as the sequence (P56817 46-501) above, with P6S, V162I, L165I, S180T, V182A, I340V, L393A, Q443H counted along it
T2 sequence (P56817 22-460): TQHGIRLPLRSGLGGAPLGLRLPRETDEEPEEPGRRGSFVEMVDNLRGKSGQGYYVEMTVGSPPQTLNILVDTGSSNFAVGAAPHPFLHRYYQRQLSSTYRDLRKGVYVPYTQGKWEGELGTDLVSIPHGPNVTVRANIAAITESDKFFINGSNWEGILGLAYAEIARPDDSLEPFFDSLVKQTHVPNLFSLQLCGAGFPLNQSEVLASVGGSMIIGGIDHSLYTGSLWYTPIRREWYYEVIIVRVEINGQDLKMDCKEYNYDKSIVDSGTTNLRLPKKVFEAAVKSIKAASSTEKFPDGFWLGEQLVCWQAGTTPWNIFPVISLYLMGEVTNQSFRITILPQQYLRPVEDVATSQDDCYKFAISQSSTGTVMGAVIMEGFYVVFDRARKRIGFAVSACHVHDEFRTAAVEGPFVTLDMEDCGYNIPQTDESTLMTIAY

In the case of `C[C@@]1(c2cc(-c3cncnc3)c(F)cc2F)CCSC(N)=N1` [Example 5, (S)-4-(2,4-Difluoro-5-pyrimidin-5-yl-phenyl)-4-methyl-5,6-dihydro-4H-[1,3]thiazin-2-ylamine], the “CSF Abeta 1-x level reduction” value in test [1] (10 mg/kg oral, CSF) is reported as about 60%. For the same compound, the “plasma Abeta 1-x level reduction” value in test [1] (10 mg/kg oral, plasma) is “approximately 50%”. In test [1] (setting [5]), the “Abeta 1-x peptide level reduction” value is given as “approximately 50%”, the C99 level reduction is given as about 45% and the sAPPb level reduction entry is “approximately 30%”.

`C[C@@]1(c2ccc(F)c(-c3cnccn3)c2)CCSC(N)=N1` [Example 12, (S)-4-(4-fluoro-3-(pyrazin-2-yl)phenyl)-4-methyl-5,6-dihydro-4H-1,3-thiazin-2-amine dihydrochloride]: the negative-log IC50 (pIC50) is 6.08 in test [2] (setting [6]); 6.18 in test [3] (setting [7]); 6.19 in test [3] (setting [8]); 5.89 in test [4] (setting [9]); 6.02 in test [4] (setting [10]).

Turning to `COc1cncc(-c2cccc([C@]3(C)CCSC(N)=N3)c2)c1.Cl.Cl` [Example 19, (S)-4-[3-(5-Methoxy-pyridin-3-yl)-phenyl]-4-methyl-5,6-dihydro-4H-[1,3]thiazin-2-ylamine dihydrochloride], in test [1] (setting [11]), the “Abeta 1-x peptide level reduction in brain cortex” value is “approximately 30%”. Also, the “C99 level reduction in brain cortex” value in test [1] (setting [11]) was “approximately 50%”. Moreover, the “sAPPb level reduction in brain cortex” value in test [1] (setting [11]) was about 20%. The pIC50 in test [2] (setting [6]) was 6.38; in test [3] (setting [7]), 6.54; in test [3] (setting [8]) it was 6.67; in test [4] (setting [9]) it was 6.47; in test [4] (setting [10]) it was 6.32.

With `CC1(C)C[C@@](C)(c2ccc(F)c(-c3cncnc3)c2)N=C(N)S1` [Example 21, (S)-4-(4-fluoro-3-(pyrimidin-5-yl)phenyl)-4,6,6-trimethyl-5,6-dihydro-4H-1,3-thiazin-2-amine], the negative-log IC50 (pIC50) is 6.06 in test [2] (setting [6]); 6.45 in test [3] (setting [7]); 6.37 in test [3] (setting [8]); 6.06 in test [4] (setting [9]); 6.10 in test [4] (setting [10]).

`CC1(c2ccc(-c3ccccc3)cc2)CCSC(N)=N1` (stereo not drawn) [reference compound]: the values for the pIC50 in test [2] (setting [12]), in test [4] (setting [13]) and in test [4] (setting [14]) were 3.94, 4.67 and 4.45, respectively.

Consider `C[C@@]1(c2ccc(-c3ccccc3)cc2)CCSC(N)=N1` [reference compound], for which the pIC50 was 4.55 in test [2] (setting [12]); 5.11 in test [3] (setting [15]); 4.98 in test [3] (setting [16]); 4.88 in test [4] (setting [13]); 4.79 in test [4] (setting [14]).

As to `C[C@]1(c2ccc(-c3ccccc3)cc2)CCSC(N)=N1` [reference compound], the pIC50 in test [2] (setting [12]) was under 4.00; in test [3] (setting [15]), 4.55; in test [3] (setting [16]) it was 4.33; in test [4] (setting [13]), 4.78; in test [4] (setting [14]) it was 4.63.

The term pIC50 denotes the negative decadic logarithm of the IC50, by convention in mol/L.
